Patent US20070037785A1, “Novel dipeptidyl peptidase IV inhibitors used for functionally influencing different cells and treating immunological, infammatory, neuronal, and other diseases” (priority 2003, published 2007)

System: Dextran Sulfate-induced Colitis of Mice
Experiment: Dextran sulfate-induced colitis of mice, disease score
Type: in vivo, Balb/c mice
Details: 10 pg single inhibitor i.p. on three successive days from day 5; day 7; slight, but insignificant

Compound	reduction of the heaviness of the disease (score) [%]
CCCCC[C@H](CC(=O)NO)C(=O)N[C@H](C(=O)N1CCC[C@H]1CO)C(C)C [Actinonine]	−16.5

Biological target: dipeptidyl peptidase IV (Homo sapiens, UniProt P27487)
Experiment: biochemical
Details: values marked with "*" are ID50 values; read-out: IC50DPIV, values marked with "*" = ID50

Sequence of dipeptidyl peptidase IV (P27487 whole entry, species assumed): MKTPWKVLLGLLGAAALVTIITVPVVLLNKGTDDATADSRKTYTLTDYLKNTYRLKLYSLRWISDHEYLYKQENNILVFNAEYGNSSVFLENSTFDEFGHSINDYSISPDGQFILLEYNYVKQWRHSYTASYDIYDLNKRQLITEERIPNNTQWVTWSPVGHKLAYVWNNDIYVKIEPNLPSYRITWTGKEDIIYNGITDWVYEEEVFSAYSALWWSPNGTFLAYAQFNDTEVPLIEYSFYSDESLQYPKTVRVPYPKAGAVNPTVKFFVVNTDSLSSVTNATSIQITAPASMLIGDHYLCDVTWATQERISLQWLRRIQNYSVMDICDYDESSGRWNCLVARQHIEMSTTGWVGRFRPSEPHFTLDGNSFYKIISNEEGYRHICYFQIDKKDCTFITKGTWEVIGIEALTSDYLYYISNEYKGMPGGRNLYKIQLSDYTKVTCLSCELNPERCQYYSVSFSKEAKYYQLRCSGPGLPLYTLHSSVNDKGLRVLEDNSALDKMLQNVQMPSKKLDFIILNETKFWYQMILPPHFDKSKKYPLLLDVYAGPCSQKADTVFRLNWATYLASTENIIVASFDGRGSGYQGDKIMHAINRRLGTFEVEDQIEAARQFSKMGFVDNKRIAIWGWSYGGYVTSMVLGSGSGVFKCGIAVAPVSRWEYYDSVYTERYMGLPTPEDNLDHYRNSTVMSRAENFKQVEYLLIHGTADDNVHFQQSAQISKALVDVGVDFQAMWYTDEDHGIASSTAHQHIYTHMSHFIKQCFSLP

IC50 [µM]	Compound
275	COc1ccc(/C=N/NC(=O)C(=O)Nc2ccc(Cl)cc2C)c(OC)c1 [D10.134]
92.2	COC(=O)c1cccc(NC(=O)/C(=C\c2ccc3c(c2)OCO3)NC(=O)c2ccc(Br)o2)c1 [D12.043]
103	CCOc1cccc(/C=N\NC(=O)c2ccco2)c1O [D10.107]
10.7	O=C(c1cc(C(=O)N2CCOCC2)cc([N+](=O)[O-])c1)N1CCOCC1 [D5.009]
91	COc1cc(/C=N/NC(=O)c2ccc(NC(=O)c3ccccc3C)cc2)cc(OC)c1OC [D10.100]
83.3	Cn1c(=O)c2c(nc(NCC(O)CO)n2Cc2ccccc2Cl)n(C)c1=O (stereo not drawn) [D12.040]
340	Cc1cc(C(=O)N/N=C\c2c[nH]c3ccccc23)c(C)o1 [D10.136]
169	Cc1ccc(C(=O)NC(NC(=S)Nc2sc3c(c2C(N)=O)CCCC3)C(Cl)(Cl)Cl)cc1 (stereo not drawn) [D3.099]

Compound	IC50 [µM]
O=C(Nc1cccc(/N=C/c2cc(/N=N\c3ccccc3Cl)ccc2O)c1)c1ccco1 [D14.002]	2.5
Cc1cccc(NCC(=O)N/N=C/c2cc(Br)c(O)c(O)c2Br)c1 [D10.094]	65.5

Same assay, conditions: values without "*" = IC-50; read-out: IC50DPIV

IC50 [µM]	Compound
20.4	CCN(CC)c1ccc(/C=C(/NC(=O)c2ccccc2)C(=O)N/N=C/c2c(C)c(Br)c(O)c(Br)c2O)cc1 [D10.037]
18.9	CC(C)C1Cc2c(sc3c2c(=O)n(Cc2ccccc2)c2nnc(SCC(=O)O)n32)CO1 (stereo not drawn) [D3.024]
17.8	COc1ccc2ccccc2c1/C=N/NC(=O)c1cc2ccccc2cc1O [D10.031]
38.1	Cc1ccccc1NC(=O)CSC1=NCCN1 [D6.057]
91.3	COc1ccc(OCC(=O)N/N=C\C(C)=C/c2ccc(/C=C(C)\C=N/NC(=O)COc3ccc(OC)cc3Br)cc2)c(Br)c1 [D10.101]
40.5	CS(=O)(=O)N1CCN(C(=O)Nc2ccc(C(F)(F)F)cc2)C1C(=O)NCc1cccc(N)c1 (stereo not drawn) [D9.007]
31.3	CCCC(=O)Cc1ccc(N(C(=O)CCC)S(=O)(=O)c2cccs2)cc1 [D6.048]
21.8	COc1cc(/C=N/NC(=O)c2ccco2)cc(OC)c1OC(C)=O [D10.041]
99.4	COc1ccc(OCC(=O)N/N=C/c2c(Br)cc(Br)c(O)c2Br)c(Br)c1 [D10.105]
88.8	COc1ccc(NS(=O)(=O)c2ccc(/N=C/c3cc(Br)cc(Br)c3O)cc2)nn1 [D9.010]
62.4	Cn1cnnc1SCC(=O)OCN1C(=O)c2ccccc2C1=O [D3.083]
27.5	Nc1ccc2c(c1)C/C(=C\c1ccco1)C2=O [D3.070]
7.5	Cc1cccc(C2N(CC(C)C)CC(C(=O)c3c(C)cccc3C)N2CCCN2CCCC2=O)c1 (stereo not drawn) [D4.010]
20.8	CCOc1cc(/C=N/NC(=O)c2cc(C3CC3)[nH]n2)ccc1O [D10.039]
15.2	CCCn1c(N2CCN(CC(=O)c3c(C)n(C)c4ccccc34)CC2)nc2c1c(=O)[nH]c(=O)n2C [D3.027]
12.2	CCOC(=O)c1ccc(N2C(=O)CSCC2=O)cc1 [D4.015]
62.2	N#Cc1ccc(/C=N/NC(=O)c2ccccc2[N+](=O)[O-])cc1 [D10.091]
15.6	CC(C)(C)S(=O)(=O)c1ccc2nc3c(n2c1)CCCC3 [D3.003]
28.8	Cc1ccc(/C=N/NC(=O)c2ccc(NC(=O)c3cccc([N+](=O)[O-])c3)cc2)o1 [D10.045]
59.4	CC(=O)Oc1ccc2oc(=O)c3c(c2c1)CCCN3C(C)=O [D12.029]
55	O=C1CCCC(=O)N1c1ccc(NCCOCCO)c([N+](=O)[O-])c1 [D4.065]
49	CCCCOC(=O)c1cc(-c2ccc(/C=C3/C(=O)N(CC(C)O)C(=O)C(C#N)=C3C)o2)ccc1Cl (stereo not drawn) [D6.070]
87.9	COc1ccc(-c2ccc(C3Nc4ccc5ccccc5c4C4=C3C(=O)CC(C)(C)C4)o2)cc1Cl (stereo not drawn) [D6.098]
39.2	CN(C)c1ccc(/C=C(\NC(=O)c2ccccc2)C(=O)N/N=C/c2ccccc2[N+](=O)[O-])cc1 [D10.061]
39.7	O=C(N/N=C/c1cc(I)cc(I)c1O)c1ccc(NC(=O)c2ccccc2)cc1 [D10.062]
54.5	CCOC(=O)c1n[nH]c2c1CN(c1ccc([N+](=O)[O-])cc1)C2=O [D12.031]

Compound	IC50 [µM]
O=C(N/N=C/c1cc(Br)c(O)c(Br)c1O)/C(=C\c1ccc2c(c1)OCO2)NC(=O)c1ccccc1 [D12.032]	60
CN(C)CCNc1nc2c(c(=O)n(C)c(=O)n2C)n1Cc1ccccc1Cl [D6.006]	7.5
CCCOC(=O)c1cc(-c2ccc(/C=C3/C(=O)N(CC(C)O)C(=O)C(C#N)=C3C)o2)ccc1Cl (stereo not drawn) [D6.095]	82.2
O=C1C(Cc2c[nH]c3ccccc23)NC(=S)N1c1ccccc1 (stereo not drawn) [D3.051]	40.2
COc1ccc(C(=O)N/N=C/c2cc(O)c(O)c(Br)c2Br)cc1 [D10.086]	57.8
Cc1ccc(C(=O)N/C(=C\c2ccco2)C(=O)N2CCOCC2)cc1C [D12.025]	46.5

System: Ovalbumine-induced Asthma Bronchiale of Mice
Experiment: Ovalbumine-induced asthma bronchiale of mice, pulmonal function (EF50)
Type: in vivo, Balb/c Mice
Details: 0.1 mg (of each) inhibitor i.p. on days 28-35; FIG. 3A
Excerpt: Therapeutic Effect of the Combined Inhibition of Dipeptidyl Peptidase IV and of Enzymes Having an Analogous Effect as well as of the Alanyl Aminopeptidase and of Enzymes Having an Analogous Effect on the Ovalbumine-induced Asthma Bronchiale of Mice (Animal Model of Human Asthma Bronchiale).
Female Balb/c Mice were sensitized for the antigen ovalbumine capable of inducing asthma bronchiale by an intreperitoneal administration of […] ovalbumine on the days 0, 14 and 21. On day 27/28, the animals received a boostering dose of ovalbumine by inhalation [vD3]. After an intreperitoneal administration of the peptidase inhibitors on the days 28-35, there was effected an intranasal ovalbumine challenge on day 35, as well as a check of the allergic premature reaction via the pulmonal function. There were measured: the average expiratory flux (EF50), the tidal volume, the respiration rate and the minute volume as well as the number of eosinophilic granulocytes in the bronchoalveolar lavage. 8 to 10 animals were used per experimental group. By way of example, in FIG. 3A, there is summarized the effect of the peptidase inhibitors on the reduction of the EF50 value. […] Group E represents animals which were not sensitized by OVA, but which were subjected—beyond that—all procedures to which the animal groups A to D were subjected.

Compound	therapeutic effect on the reduction of the EF50 value
N[C@@H](CCCCNC(=O)OCc1ccc([N+](=O)[O-])cc1)C(=O)N1CCCC1 [Lys[Z(NO2)] pyrrolidide]	showed a therapeutic effect
CCCCC[C@H](CC(=O)NO)C(=O)N[C@H](C(=O)N1CCC[C@H]1CO)C(C)C [Actinonine]	showed a therapeutic effect
